Laboratory results: US20080139458A1, “Methods of Treatment For Injured or Diseased Joints” (priority 2004, published 2008)
Several values for one entry are separate records, joined by “and”; a condition that tells them apart may be missing. Identical values can stand only once. Like-named read-outs stand apart in the source and are kept apart here. Peptide text beside a SMILES is read from it. * marks the point of attachment. Cbz = O=C(OCc1ccccc1)*; CH2F = FC*

Assays:
[1] = system: pooled rheumatoid arthritis (RA) synovial fluid (SF) aspirates supplemented with purified human lubricin; assay type: biochemical; conditions: for Change in coefficient of friction Δμ ± S.D.: 37° C., E-64 10 μM, Z-LLL-FMK 20 μM, PMSF 25 μM, EDTA 10 mM, Lubricin = no inhibitor
Protocol: (§1) The boundary lubricating abilities of protease-treated human lubricin and BSF were measured using a friction apparatus as reported by Davis et al., J. Biomech. Eng. 101:185-192, 1979. Lubricant (200 μL) was applied between a bearing of latex and a ring of polished glass with a contact area of 1.59 cm^2. The latex was oscillated, under a pressure of 0.35×10^6 N/m^2, against the polished glass with an entraining velocity of 0.37 mm/sec. The bearing system was axially loaded within a gimbals system free to rotate around two perpendicular horizontal axes. The friction apparatus recorded displacements of the gimbals system around the vertical loading axis through a linear displacement voltage transducer, where the output was directly proportional to the frictional torque (F). A bearing load of 70 newtons (N) was related to the coefficient of friction (μ) via Amonton's law, F=μN.
(§2) The μ of the lubricant was recorded at room temperature and was preceded by a baseline measurement of μ with normal saline (NS). Lubrication was manifested by a reduction in μ by the lubricant relative to that of NS. Negative Δμ (−Δμ) values indicate lubrication whereas positive Δμ (+Δμ) indicate friction. Addition of 200 μL of lubricant was followed by bringing the bearing surfaces close enough so that the solution wet both surfaces. After 5 min for equilibration, the latex-coated bearing was brought to rest on the glass as it was oscillating. Voltage measurements were recorded at 1, 3, and 5 min. After 5 min, the surfaces were separated for 2 min and then brought back together for three additional 5 min session. The 3 and 5 min μ values of the last two 5 min session were recorded and averaged, and data were later combined with another duplicate experiment providing 8 distinct measurements of μ.
(§3) The SF aspirates from patients diagnosed with a Noyes criteria grade III or IV OA (n=60), with RA (n=20), or with KJS (n=23) were pooled in equal proportions. […] The lubricin-supplemented pooled OA, RA, and KJS SF aspirates were treated at 37° C. and sampled after 24, 48, and 96 hours. The friction analysis of the sampled SF was conducted as described above. Normal human SF was obtained from cartilage allograft donors and was utilized as a control.
(§4) The treatments were performed at 37° C., and SF was sampled at 24, 48, and 96 hours post-treatment. The in vitro friction assay of sampled SF was performed as described above.

[2] = system: pooled knee joint synovitis (KJS) synovial fluid (SF) aspirates supplemented with purified human lubricin; assay type: biochemical; conditions: for Change in coefficient of friction Δμ ± S.D.: 37° C., E-64 10 μM, Z-LLL-FMK 20 μM, PMSF 25 μM, EDTA 10 mM, Lubricin = no inhibitor; for Lubricating ability compared to controls without enzyme inhibitors: KJS SF at 24, 48, and 96 hours, P<0.001
Protocol: as §1, §2, §3, §4

[3] = at 24, 48, and 96 hours, P<0.001

Structure (SMILES)	average increase in Δμ [1]	Δμ compared to lubricin-supplemented pooled RA SF aspirates [1]	average increase in Δμ [2]	Δμ compared to lubricin-supplemented pooled KJS SF aspirates [2]	Change in coefficient of friction Δμ ± S.D. ([1]; 0 hrs)	Change in coefficient of friction Δμ ± S.D. ([1]; 24 hrs)	Change in coefficient of friction Δμ ± S.D. ([1]; 48 hrs)	Change in coefficient of friction Δμ ± S.D. ([1]; 96 hrs)	Δμ compared to lubricin-supplemented pooled RA SF aspirates [1, 3]	average increase in Δμ ([1]; at 24 hours, RA SF) [%]	average increase in Δμ ([1]; at 48 hours, RA SF) [%]	average increase in Δμ ([1]; at 96 hours, RA SF) [%]	Change in coefficient of friction Δμ ± S.D. ([2]; 0 hrs)	Change in coefficient of friction Δμ ± S.D. ([2]; 24 hrs)	Change in coefficient of friction Δμ ± S.D. ([2]; 48 hrs)	Change in coefficient of friction Δμ ± S.D. ([2]; 96 hrs)	Lubricating ability compared to controls without enzyme inhibitors [2]	average increase in Δμ ([2]; at 24 hours, KJS SF) [%]	average increase in Δμ ([2]; at 48 hours, KJS SF) [%]	average increase in Δμ ([2]; at 96 hours, KJS SF) [%]
O=C(O)CN(CCN(CC(=O)O)CC(=O)O)CC(=O)O [EDTA]	90.0% and 88.3% and 128.3%	significant decrease in Δμ	50.0% and 80.0% and 85.0%	significant (P<0.01) decrease in Δμ																
CC(C)C[C@H](NC(=O)[C@H](CC(C)C)NC(=O)[C@H](CC(C)C)NC(=O)OCc1ccccc1)C(=O)CF [Z-LLL-FMK, Z-Leu-Leu-Leu-fluoromethyl ketone] (Cbz-Leu-Leu-Leu-CH2F)					−0.060 ± 0.002	−0.049 ± 0.002	−0.019 ± 0.001	−0.005 ± 0.003	significant decrease in Δμ	18.3	68.3	91.7	−0.060 ± 0.002	−0.035 ± 0.002	−0.031 ± 0.003	−0.028 ± 0.002	preserved lubricating ability	41.7	48.3	53.3
CC(C)C[C@H](NC(=O)[C@H]1O[C@@H]1C(=O)O)C(=O)NCCCCN=C(N)N (relative stereo) [E-64, L-trans-epoxysuccinyl-leucyl-amido-(4-guanidino)-butane]					−0.060 ± 0.002	−0.053 ± 0.004	−0.024 ± 0.002	−0.014 ± 0.004	significant decrease in Δμ	11.7	60.0	76.7	−0.059 ± 0.004	−0.042 ± 0.005	−0.039 ± 0.007	−0.034 ± 0.002	preserved lubricating ability	32.7	38.5	42.4
O=S(=O)(F)Cc1ccccc1 [PMSF, phenylmethanesulfonyl fluoride]					−0.060 ± 0.002	−0.009 ± 0.009	−0.008 ± 0.004	−0.009 ± 0.001	significant decrease in Δμ	85.0	86.3	85.0	−0.060 ± 0.001	−0.033 ± 0.006	−0.030 ± 0.005	−0.027 ± 0.005	preserved lubricating ability	45.0	50.0	55.0
